{"source": "patent US8679495B2", "about": "“Use of anti-90K monoclonal antibodies for the prevention and treatment of tumors and metastases thereof” (MediaPharma S.r.l., priority 2009, dated 2014)", "test_system": "human breast cancer cell MDA-MD-231", "experiment": "Tumor growth of breast cancer cells injected subcutaneously in nude mice", "format": "in vivo", "details": "MDA-MD-231 in nude mice, intraperitoneal, SP-2 10 μg/kg twice a week, docetaxel 7.5 mg/kg once a week, up to 44 days", "method": "Materials and methods: Nude mice were injected subcutaneously with 5×10^6 human breast cancer cell MDA-MD-231 (cells expressing 90K). One group was injected by intraperitoneal route with phosphate buffer and served as a control. Other groups were treated by intraperitoneal route with SP-2 antibody at a dose of 10 μg/kg twice a week, or a control IgG at the same dose, or with docetaxel at a dose of 7.5 mg/kg once a week, or with a combination of SP-2 and docetaxel. Tumor growth was followed up by measuring lesion diameters up to 44 days after injection. Each group, control and treated, consisted of 8 animals.", "data": [{"smiles": "CC(=O)O[C@@]12CO[C@@H]1C[C@H](O)[C@@]1(C)C(=O)[C@H](O)C3=C(C)[C@@H](OC(=O)[C@H](O)[C@@H](NC(=O)OC(C)(C)C)c4ccccc4)C[C@@](O)([C@@H](OC(=O)c4ccccc4)[C@H]21)C3(C)C", "note": "[docetaxel]", "values": [{"measurement": "tumor growth in comparison with control group", "value": "significantly reduced tumor growth"}]}]}
